Series [1] in a line: Pharmacokinetic study in rats (intragastric administration and intravenous injection, LC/MS/MS). It is filed as in vivo, SD rats. Particulars: rat; for Vd/F / AUC / CL/F / half-life / Cmax / MRT / Vd / clearance: both sexes, SD, plasma; for Vd/F: read-out: Apparent volume of distribution Vz/F; for AUC: read-out: Area under curve AUC; for CL/F: read-out: Clearance CL/F; for half-life: read-out: Half-life t½ (converted); for Cmax: read-out: Plasma concentration Cmax; for MRT: read-out: Residence time MRT; for Vd: read-out: Apparent volume of distribution Vz; for clearance: read-out: Clearance CL. On the procedure: With rats as test animals, the plasma concentration of the compound of Example 2 and a comparative compound A (see compound (1) of Example 3 in WO2016135052A1) were determined by LC/MS/MS at different time points after intragastric administration and intravenous injection to the rats. The pharmacokinetic behavior in rats of the compound disclosed herein was studied and its pharmacokinetic profile was evaluated.
16 healthy adult SD rats (half male and half female, purchased from Vital River Laboratory Animal Technology Co., Ltd.) were evenly divided into 4 groups.
A certain amount of the compound was weighed out, and 5% of DMSO, 5% of Tween 80, and 90% of normal saline were added to give a colorless and clear solution.
Intragastric administration group: SD rats were fasted overnight, and then the compound was administered intragastrically to the rats at a dose of 2 mg/kg and a volume of 10.0 mL/kg.
Intravenous administration group: SD rats were fasted overnight, and then the compound was administered to the rats by intravenous injection at a dose of 1 mg/kg and a volume of 5.0 mL/kg.
Intragastric administration group: The compound of Example 2 and the comparative compound A were administered intragastrically to the rats, and 0.1 mL of blood was collected from the orbit before administration and 0.25 h, 0.5 h, 1.0 h, 2.0 h, 4.0 h, 6.0 h, 8.0 h, 11.0 h and 24.0 h after administration. The blood was placed in an EDTA-K2 anticoagulation tube and centrifuged at 10000 rpm for 1 min at 4° C. The plasma was separated within 1 h and stored at −20° C. before analysis. The process from blood collection to centrifugation was performed in an ice bath. Two hours after administration, feeding was resumed.
Intravenous administration group: The rats were injected intravenously with the compound of Example 2 and the comparative compound A, and the blood was collected before administration and 5 min, 15 min, 0.5 h, 1.0 h, 2.0 h, 4.0 h, 8.0 h, 11.0 h and 24.0 h after administration and treated in the same way as the blood of the intragastric administration group.
Determination of plasma concentrations in rats after intragastric administration and intravenous injection of the test compounds at different concentrations: 20 μL of rat plasma at each time point after administration was mixed with 50 μL of an internal standard solution (camptothecin, 100 ng/mL) and 200 μL of acetonitrile, and the mixture was vortexed for 5 min and centrifuged for 10 min at 3700-4000 rpm. 1.0-2.0 μL of supernatant of the plasma sample was taken for LC/MS/MS analysis.

For series [2], the system named is dextran sulfate sodium salt (DSS)-induced UC mice. Briefly: Prophylactic and therapeutic effects on DSS-induced ulcerative colitis (UC) in mice. The class given is in vivo, female C57BL/6 mice. The conditions noted are these: for efficacy on DSS-induced UC (conclusion in words): 50 mg/kg, body weight and colon length; for body weight decreasing rate / colon length, % of that of the normal control group: DSS-induced UC mice. On the procedure:
In the experiment, female C57BL/6 mice from Vital River were selected to establish an ulcerative colitis (UC) model induced by dextran sulfate sodium salt (DSS), and the prophylactic and therapeutic effects of a positive compound ABX-464 (see compound 90 in WO2015001518A1) and compound 1 disclosed herein on the DSS-induced ulcerative colitis were evaluated.
Female C57BL/6 mice for experiments, purchased from Vital River Laboratory Animal Technology Co., Ltd. (production license number: SCXK (Zhejiang) 2019-0001, animal certification number: 20210401Abzz0619000795), weighing 20-22 g at the time of purchase, were bred at 5 mice/cage in an independent SPF space (in 12/12-hour light/dark cycle, at a constant temperature of 23±1° C. and a humidity of 50%-60%) and given ad libitum access to food and water. After purchase, the animals were acclimatized for at least 1 week, and then the experiment began.
The mice were randomly divided by body weight into the following 5 groups: normal control group (Naïve group), model group (DSS group), ABX-464 (50 mg/kg, p.o., qd) group, ABX-464 (50 mg/kg, p.o., bid) group, and compound 1 disclosed herein (50 mg/kg, p.o., bid) group. After acclimatization, the mice were subjected to 2.5% DSS feeding from day 0. After 7 days of DSS feeding, the mice were fed normal water until day 10. The corresponding solvents and drugs were administered intragastrically for 10 consecutive days from day 0 to day 10, and the mice were observed daily for changes in body weight from day 0 to day 10. On day 10, the mice were weighed, and the colon length was measured.
The experimental data are expressed as mean±standard error (SEM). Statistical comparison was performed using Excel software t-test. The data of the model group and the data of the normal control group were analyzed and compared. #P<0.05 indicates a significant difference between the model group and the normal control group, ##P<0.01 indicates a highly significant difference between the model group and the normal control group, and ###P<0.001 indicates a very highly significant difference between the model group and the normal control group. *P<0.05 indicates a significant difference between the administration group and the model group, **P<0.01 indicates a highly significant difference between the administration group and the model group, and ***P<0.001 indicates a very highly significant difference between the administration group and the model group.

The next series has as its system miR-124. Briefly: Up-regulation of miR-124 in CD3/CD28 antibody-activated T cells (SYBR green quantitative PCR). It is filed as cell-based. The conditions noted are these: T-cell, 72 h; activated human T cells, 1 μM compound, 3 days, relative to DMSO, U6 internal reference. On the procedure:
The effect of the compound on miR-124 expression levels was detected in CD3/CD28 antibody-activated T cells. After the activated T cells were treated with the compound, the total cellular RNA was extracted, the cDNA obtained from reverse transcription was used as a template, and quantification was performed by an SYBR green fluorescence quantitative PCR method using a specific miR-124 primer.
Isolation of T cells: Purchased human peripheral blood mononuclear cells (PBMCs) were counted, centrifuged, and washed once with a separation buffer (PBS, pH 7.4, containing 0.5% BSA and 2 mM EDTA), and the supernatant was discarded. The components were added in an amount of 40 μL of a buffer and 10 μL of pan T Cell Biotin-Antibody Cocktail per 1×10^7 cells, and the pellet was resuspended. The resulting suspension was mixed and incubated in a refrigerator at 4° C. for 5 min. After the incubation was completed, the components were added in an amount of 30 μL of a buffer and 20 μL of Pan T Cell MicroBeads Cocktail per 1×10^7 cells, and the resulting suspension was mixed and incubated in a refrigerator at 4° C. for 10 min. The separation column (LS column) was rinsed with 3 mL of a cell separation buffer in advance, loaded with the above cell suspension, and then repeatedly washed 3 times with 1 mL of the cell separation buffer. The effluent cell fluid was collected in a 15 mL centrifuge tube, thus giving the enriched T cells. The cells were counted and added at a density of 1×10^6 cells/mL to an RPMI1640 medium (complete medium) containing 10% FBS and 40) U/mL IL-2, and the resulting mixture was kept on ice for later use.
Activation of T cells: The corresponding Dynabead Human T-Activator CD3/CD28 for T Cell Expansion and Activation were added to a 1.5 mL centrifuge tube in an amount of 25 μL of the activated magnetic beads per 1×10^6 cells, which should be shaken on a shaker for about 30 s before aspiration. In the centrifuge tube, at a volume ratio of greater than 1:1, the activated magnetic beads were washed 3 times with a medium, and all the washing liquid was removed after the last washing. A complete medium with a volume equal to the starting volume was added to resuspend the activated magnetic beads. The washed activated magnetic beads were added to the cell resuspension, and the resulting mixture was well mixed. The cells were added to a six-well plate at 3 mL/well and incubated in a cell incubator at 37° C. with 5% CO2 for 2 days.
Compound treatment: A 20 mM compound stock solution was diluted to 200 μM with DMSO, and then diluted 4-fold to 50 μM (50)×) with a complete medium. The resulting mixture was well mixed for later use. 4-fold diluted DMSO (25% DMSO) was added to negative control wells. T cells were activated for two days and pipetted uniformly. The 1.5 mL centrifuge tube was mounted on a magnetic rack, and the activated magnetic beads were removed. The cell suspension was collected, and the cells were counted and then centrifuged at 300×g for 10 min to discard the supernatant. The cells were then resuspended to 1.02×10^6 cells/mL, and 980 μL of the cell suspension and 20 μL of the 50× compound were added to each 24-well plate, with the final concentration of the compound being 1 μM. The cells were placed in a cell incubator at 37° C. with 5% CO2 for another 3 days.
RNA extraction: T cells were collected by centrifugation at 1500 rpm for 3 min, washed once with PBS, and centrifuged again to discard the supernatant. The total cellular RNA was extracted using a microRNA extraction kit according to the package insert. 700 μL of a Trizol cell lysis buffer was added to the cell pellet, and the resulting mixture was pipetted uniformly and left at room temperature for 5 min. 140 μL of chloroform was added, and the resulting mixture was well mixed with shaking and left to stand at room temperature for 3 min. The chloroform-cell lysis buffer mixture was centrifuged at 12000×g and 4° C. for 15 min. […]

[3] abbreviates: po, intragastric administration, 2 mg/kg.

Data on four compounds can be found in patent US20240327388A1, “QUINOLINAMINE COMPOUND, PREPARATION METHOD THEREFOR AND APPLICATION THEREOF IN PHARMACEUTICALS” (JIANGSU HENGRUI PHARMACEUTICALS CO., LTD., priority 2021, published 2024).

Read-outs that look alike come from different tables or passages of the source.

In the case of `O=C(O)[C@H]1O[C@@H](N(c2ccc(OC(F)(F)F)cc2)c2ccc3cccc(Cl)c3n2)[C@H](O)[C@@H](O)[C@@H]1O` [A, reference compound], in series [1] (setting [3]), the Vd/F worked out at 21.4 L/kg, the AUC amounted to 311 ng·h/mL, the CL/F came out at 95.7 mL/min/kg and the half-life is 2.57 h. Also, in series [1] (setting [3]), the Cmax turned out to be 105 ng/mL and the MRT was found to be 3.76 h. For the same compound, in series [1] (intravenous injection, 1 mg/kg), the Vd was 0.151 L/kg, the AUC was 11900 ng·h/mL, the clearance came out at 1.45 mL/min/kg and the half-life was 1.24 h. For the same compound, in series [1] (intravenous injection, 1 mg/kg), the MRT was 1.17 h.

For `FC(F)(F)Oc1ccc(Nc2ccc3cccc(Cl)c3n2)cc1` [ABX-464], the “efficacy on DSS-induced UC (conclusion in words)” value in series [2] was “certain prophylactic and therapeutic effects on the DSS-induced UC”. For the same compound, in series [2] (day 10, 50 mg/kg p.o. bid), the “body weight decreasing rate” value is reported as 10.3% and the “colon length, % of that of the normal control group” value (shortened to “colon length, %”) came out at 89.3%. Also, in series [2] (day 10, 50 mg/kg p.o. qd), the “body weight decreasing rate” value came to 14.1% and the “colon length, %” value worked out at 85.5%.

Regarding `FC1(F)Oc2ccc(Nc3ccc4cccc(Cl)c4n3)cc2O1` [Compound 1, 8-Chloro-N-(2,2-difluorobenzo[d][1,3]dioxol-5-yl)quinolin-2-amine], the “efficacy on DSS-induced UC (conclusion in words)” value in series [2] is “better efficacy in terms of body weight and colon length than the positive drug ABX-464”. Further, in series [2] (day 10, 50 mg/kg p.o. bid), the “body weight decreasing rate” value is reported as 0.4% and the “colon length, %” value is 91.9%. Further, the fold induction at 1 µM with miR-124 amounted to 3.9.

On to `O=C(O)[C@H]1O[C@@H](N(c2ccc3c(c2)OC(F)(F)O3)c2ccc3cccc(Cl)c3n2)[C@H](O)[C@@H](O)[C@@H]1O` [Compound 2, (2S,3S,4S,5R,6R)-6-((8-Chloroquinolin-2-yl)(2,2-difluorobenzo[d][1,3]dioxol-5-yl)amino)-3,4,5-trihydroxytetrahydro-2H-pyran-2-carboxylic acid], for which, in series [1] (setting [3]), the Vd/F came to 6.18 L/kg, the AUC is 1220 ng·h/mL, the CL/F is 28.7 mL/min/kg and the half-life is 2.47 h. In series [1] (setting [3]), the Cmax came to 242 ng/mL and the MRT was 4.32 h. In series [1] (intravenous injection, 1 mg/kg), the Vd turned out to be 0.178 L/kg, the AUC is 23000 ng·h/mL, the clearance is 0.781 mL/min/kg and the half-life was 2.85 h. The MRT in series [1] (intravenous injection, 1 mg/kg) was found to be 2.1 h. In series [1] (compared to comparative compound A), the “pharmacokinetic profile (conclusion in words)” value was “good absorption profile and significant pharmacokinetic superiority as compared to the comparative compound A”. Besides, the fold induction at 1 µM in the series with miR-124 is 1.2.
